This assay deals with infectious H77S (GT 1a virus). Put plainly: HCV infectious virus EC50 determination (HCV RNA by quantitative RT-PCR in infected Rof-0c cells). Format: cell-based, Hepatitis C virus genotype 1a. As to conditions: Hepatitis C virus, GT1A, 72 h, 96-well plate, virus stock grown in human serum, three days post-infection, read-out: potency against infectious H77S (EC50, 50% reduction in HCV RNA). The method, then: FIG. 6. Potency of an NS5B inhibitor and HCV entry inhibitor against the GT 1a infectious virus. Rof-0c cells were infected with either H77S or the chimera H77S RO-51-5B. At the time of infection, the cells were treated with a serial dilution of either the NS5B inhibitor HCV-796 or the HCV entry inhibitor JS81. After three days, the intracellular RNA was purified and used to determine the amount of HCV RNA.
The presence of HCV RNA was examined after purification of total cellular RNA using the PerfectPure RNA 96 Cell Kit (5 Prime) according to the manufacturer's instructions. To quantitate the amount of HCV RNA, cDNA was amplified using either the Taqman Universal PCR mix (Applied Biosystems) or the TaqMan EZ RT-PCR kit (Applied Biosystems) with a set of primers and probe complementary to a region within the 5′ untranslated region (UTR). The primer and probe sequences are: (HCV 20F) […] (SEQ ID NO:4); (HCV 114R) […] (SEQ ID NO:5); (HCV P43) FAM-[…]-TAMRA (SEQ ID NO:6).
The sensitivity of infectious HCV to antivirals was determined using the genotype 1a strains H77S or H77S RO-51-5B. […] Three days post-infection, the HCV RNA was quantified as described above. […]
Potency of HCV inhibitors against GT1a virus. […] The HCV stocks were analyzed to determine if they would be sufficient to measure the potency of HCV inhibitors. […]

As for `CNC(=O)c1c(-c2ccc(F)cc2)oc2cc(N(CCO)S(C)(=O)=O)c(C3CC3)cc12` [HCV-796], the EC50 came to 0.032 ± 0.004 µM.

One may read the EC50 as the midpoint of the concentration-response curve.

The record behind these values is patent US20100068698A1, “PRODUCTION OF […] C VIRUS PARTICLES IN CELL CULTURE” (priority 2008, published 2010).
